Molecular target: T1, Glucocorticoid receptor (Rattus norvegicus, UniProt P06536)
T1 construct: Thymus cytosol of the adrenalectomized rat; from tissue; host or cells: thymus cytosol of adrenalectomized rat
T1 sequence (P06536 1-795): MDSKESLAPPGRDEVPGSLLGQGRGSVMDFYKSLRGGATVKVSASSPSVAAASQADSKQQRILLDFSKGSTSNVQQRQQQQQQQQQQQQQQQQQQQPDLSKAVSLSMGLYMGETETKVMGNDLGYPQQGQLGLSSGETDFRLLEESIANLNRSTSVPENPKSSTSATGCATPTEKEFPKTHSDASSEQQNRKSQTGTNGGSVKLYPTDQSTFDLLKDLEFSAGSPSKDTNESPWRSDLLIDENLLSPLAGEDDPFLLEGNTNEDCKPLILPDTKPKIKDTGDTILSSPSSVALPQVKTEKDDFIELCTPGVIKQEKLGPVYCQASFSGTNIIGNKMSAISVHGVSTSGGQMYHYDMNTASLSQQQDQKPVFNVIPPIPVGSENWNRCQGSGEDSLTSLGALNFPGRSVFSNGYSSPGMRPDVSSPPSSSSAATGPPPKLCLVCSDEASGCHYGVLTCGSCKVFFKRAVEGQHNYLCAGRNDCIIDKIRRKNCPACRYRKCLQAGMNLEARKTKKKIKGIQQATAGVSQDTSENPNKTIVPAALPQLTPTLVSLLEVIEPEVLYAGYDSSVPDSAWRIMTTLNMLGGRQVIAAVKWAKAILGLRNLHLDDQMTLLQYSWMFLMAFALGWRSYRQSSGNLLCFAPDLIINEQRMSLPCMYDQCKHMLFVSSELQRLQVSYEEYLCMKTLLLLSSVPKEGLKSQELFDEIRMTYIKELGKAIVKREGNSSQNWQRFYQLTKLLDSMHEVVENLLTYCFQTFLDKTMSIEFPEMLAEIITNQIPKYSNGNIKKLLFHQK
Experiment: Receptor binding affinity, glucocorticoid receptor (competitive binding, 3H-dexamethasone)
Conditions: Dexamethasone = 100%; thymus cytosol of adrenalectomized rat
Method: The receptor binding affinity was determined by competitive binding of a specifically binding ^3H-labeled hormone (tracer) and the compound to be tested on receptors in the cytosol from animal target organs. In this case, receptor saturation and reaction equilibrium were sought.
The tracers and increasing concentrations of the compound to be tested (competitor) were co-incubated with the receptor-containing cytosol fraction at 0-4° C. over 18 hours. After separation of the unbonded tracer with carbon-dextran suspension, the receptor-bonded tracer portion was measured for each concentration, and the IC50 was determined from the concentration sequence. As a quotient of the IC50 values of the reference substance and the compound to be tested (×100%), the relative molar binding affinity (RBA) was calculated (RBA of the reference substance=100%).
Thymus cytosol of the adrenalectomized rat, thymi stored at −30° C.; buffer: TED. Tracer: ^3H-Dexamethasone, 20 nmol; reference substance: dexamethasone.

Row | SMILES | GR relative molar binding affinity (RBA) [%]
1 | C[C@]12C[C@H](c3ccc(/C=N/O)cc3)C3=C4CCC(=O)C=C4CC[C@H]3[C@@H]1CC[C@@H]2O [Example 1, 4-(17β-Hydroxy-3-oxoestra-4,9-dien-11β-yl)benzaldehyde-1(E)-oxime] | 3
2 | CC1(O)CCC2C3CCC4=CC(=O)CCC4=C3C(c3ccc(C=NO)cc3)CC21C (stereo not drawn) [Example 2, 4-(17β-Hydroxy-17α-methyl-3-oxoestra-4,9-dien-11β-yl)benzaldehyde-1(E)-oxime] | 12

— patent US7550451B2, “Progesterone receptor modulators with increased antigonadotropic activity for female birth control and hormone replacement therapy” (Bayer Schering Pharma AG, priority 2002, dated 2009)
